The values below come from the Bradley open melting point set (2014).

Values joined by “and” are separate entries in the source; they are usually repeats but may differ in a detail not shown here. Equal entries are not always repeated.

As usually defined, the melting point is the temperature of the solid-liquid transition.

For the molecule `CC(=O)Oc1ccc2c3c1O[C@H]1[C@@H](OC(C)=O)C=C[C@H]4[C@@H](C2)N(C)CC[C@@]341` [heroin], the melting point came to 173 °C.

`C=CCN1C(=O)C(CC(C)C)NC1=S` (stereo unspecified) [albutoin]: the melting point was determined as 210 °C.

Regarding `CCC(=O)OC(=O)CC` [propionic anhydride], the melting point was -44 °C.

Take `O=C(O)c1cnccc1C(F)(F)F` [4-(trifluoromethyl)nicotinic acid]: the melting point stood at 148 °C.

`Cc1cc(C)nc(NS(=O)(=O)c2ccc(N)cc2)n1` [Sulfamethazine]: the melting point was determined as 198 °C.

Molecule `OC[C@H]1O[C@@H](O)[C@H](O)[C@H](O)[C@@H]1O` [beta-D-allose] returned a melting point of 145 °C.

As to `CC(=O)NC1=C(C)CCCC1` [N-(2-methylcyclohex-1-en-1-yl)acetamide], the melting point was 90 °C.

For `COc1ccc2c(c1)C(=O)C(=O)N2` [5-methoxyisatin], the melting point is 201 °C.

`CC[C@H](C)C(=O)O[C@H]1C[C@@H](C)C=C2C=C[C@H](C)[C@H](CC[C@@H]3C[C@@H](O)CC(=O)O3)[C@H]21` [Lovastatin] came in with a melting point of 174 °C.

Molecule `O=S(=O)(Cl)c1ccc2c(c1)OCCO2` [1,4-benzodioxane-6-sulfonyl chloride] displayed a melting point of 66 °C.

Turning to `ClCC(Cl)CCl` [1,2,3-trichloropropane], the melting point is -14 °C.

In turn, `Cl/C=C/Cl` [(E)-1,2-Dichloroethene] gave a melting point of -50 °C.

In the case of `CN(C)c1ccc(/C=C(\C#N)c2nc(-c3cccc4ccccc34)cs2)cc1`, the melting point was determined as 129 °C.

Consider `COC(=O)CCC(C)C1CCC2C3C(=O)C(Br)C4CCCCC4(C)C3CCC12C` (stereo unspecified) [methyl 6-bromo-7-oxocholan-24-oate], for which the melting point was 124 °C.

For `Cc1ccc(C(=O)Cl)cc1` [p-toluoyl chloride], the melting point was -2 °C.

Regarding `C(#Cc1ccccc1)c1ccccc1` [1,1'-Ethyne-1,2-diyldibenzene], the melting point amounted to 60 °C.

Turning to `CCCOCCO` [2-Propoxyethanol], the melting point was -75 °C.

Take `O=C(O)c1cc(O)ccc1[N+](=O)[O-]` [5-hydroxy-2-nitrobenzoic acid]: the melting point was found to be 170 °C.

`CCN=C=S` [ethyl isothiocyanate] came in with a melting point of -6 °C.

For `CCOC(=O)c1ccccc1` [Ethyl benzoate], the melting point was -34 °C.

Regarding `Oc1ccc2ccccc2c1-c1c(O)ccc2ccccc12` [1,1'-bi(2-naphthol)], the melting point was 217 °C.

In turn, `O=C(O)c1cccc(Br)c1` [3-bromobenzoic acid] registered a melting point of 156 °C.

As to `Fc1ccc(Br)cc1` [1-bromo-4-fluorobenzene], the melting point is -16 °C.

In the case of `Cc1ccc(C=C2N=C(c3ccccc3)OC2=O)o1` [4-(5-Methyl-furan-2-ylmethylene)-2-phenyl-4H-oxazol-5-one], the melting point came to 160 °C.

Take `O=C(O)c1cccc(I)c1` [3-iodobenzoic acid]: the melting point came out at 187 °C.

`Nc1ccc2ncsc2c1` [6-aminobenzothiazole] came in with a melting point of 88 °C.

`CSC(SC)=C1CCCC(=C(SC)SC)C1=C(C#N)C#N` yielded a melting point of 156 °C.

For the molecule `CC(=O)Nc1ccc(O)cc1` [4-acetamidophenol], the melting point was 170 °C.

`O=C1C(c2ccccn2)=Nc2ccccc21` [2-pyridin-2-yl-3H-indol-3-one] yielded a melting point of 186 °C.

In turn, `CC(C)(C#N)c1cc(Cn2cncn2)cc(C(C)(C)C#N)c1` [Anastrozole] gave a melting point of 130 °C.

`O=C(O)c1ccc(C(=O)c2ccccc2)cc1` [4-benzoylbenzoic acid] yielded a melting point of 199 °C.

In turn, `O=C(CCCN1CCC(n2c(=O)[nH]c3ccccc32)CC1)c1ccc(F)cc1` [benperidol] returned a melting point of 170 °C.

In turn, `CC(C)CN` [isobutylamine] gave a melting point of -85 °C.

On to `CN(C)c1ccc(/C=C2\SC(=S)NC2=O)cc1` [5-(4-dimethylaminobenzylidene)rhodanine], for which the melting point is 278 °C.

With `Oc1ccc(-n2ccnc2)cc1` [4-(1-imidazolyl)phenol], the melting point amounted to 206 °C.

`CC12CCC(C(O)=C/C1=N\Nc1ccccc1)C2(C)C` (stereo unspecified) showed a melting point of 182 °C.

In turn, `CCN(CC)c1ccc(C=NO)cc1` [4-diethylaminobenzaldoxime] came in with a melting point of 96 °C.

The molecule `Nc1c(Br)cc(Br)c2c1C(=O)c1ccccc1C2=O` [1-Amino-2,4-dibromo-9,10-anthraquinone] showed a melting point of 226 °C.

`CCC1(c2ccccc2)C(=O)NC(=O)NC1=O` [phenobarbital]: the melting point was 174 °C and 176 °C.

`O=Cc1ccc(I)cc1` [p-iodobenzaldehyde]: the melting point amounted to 78 °C.

In turn, `Cc1ccc(N=Nc2c(O)ccc3ccccc23)c([N+](=O)[O-])c1` [1-[(4-Methyl-2-nitrophenyl)diazenyl]-2-naphthol] showed a melting point of 271 °C.

`C=CCCl` [allyl chloride] showed a melting point of -135 °C.

On to `COc1cccc(B(O)O)c1OC` [2,3-dimethoxybenzeneboronic acid], for which the melting point came to 69 °C.

As for `CC(C)C1=C(O)C(=O)C2=C(CCC3C(C)(C)CCCC23C)C1=O` (stereo not drawn) [7alpha-12-Hydroxy-8,12-abietadiene-11,14-dione], the melting point was determined as 181 °C.

For the molecule `C=CCC1(CC(C)C)C(=O)NC(=O)NC1=O` [butalbital], the melting point is 140 °C.

`O=c1[nH][nH]c(=O)n1-c1ccccc1` [4-phenylurazole] showed a melting point of 208 °C.

In the case of `NS(=O)(=O)c1cc2c(cc1Cl)NCNS2(=O)=O` [hydrochlorothiazide], the melting point is 269 °C.

`CCNc1nc(NC(C)(C)C)nc(SC)n1` returned a melting point of 104 °C.

As to `COc1ccc2c(c1)C(O)OC2=O` (stereo unspecified) [3-hydroxy-5-methoxy-2-benzofuran-1(3H)-one], the melting point came out at 137 °C.

`CC1=C(C#N)c2ccccc2C1` [2-methyl-1H-indene-3-carbonitrile] returned a melting point of 70 °C.

Take `O=Cc1ccccc1` [benzaldehyde]: the melting point was -56.5 °C and -55.6 °C.

For the molecule `CC(=O)Nc1ccccc1C1C=c2ccccc2=N1` (stereo unspecified) [N-[2-(1H-indol-2-yl)phenyl]acetamide], the melting point stood at 152 °C.

For `O=C\1\C=C5/[C@@](/C=C/1)(C)[C@]2(F)[C@H]([C@H]3[C@](C[C@@H]2O)([C@@]4(OC(O[C@@H]4C3)(C)C)C(=O)CO)C)CC5` [triamcinolone acetonide], the melting point was found to be 293 °C.

On to `O=C(C(=O)c1ccccc1)c1ccccc1` [Benzil], for which the melting point was determined as 94.5 °C.

`CCCC(=O)NNc1ccccc1` [N'-phenylbutanehydrazide] showed a melting point of 104 °C.

`O=C(O)c1c(O)cccc1F` [6-fluorosalicylic acid] returned a melting point of 160 °C.

In turn, `c1cnc2c(c1)ccc1cccnc12` [1,10-phenanthroline, anhydrous] registered a melting point of 118 °C.

Turning to `FC1(F)C2=CC=CC=C1C=CC=C2` [11,11-Difluoro-1,6-methano[10]annulene], the melting point turned out to be 119 °C.

For `CCOc1ccc(Br)cc1` [4-bromophenetole], the melting point is 4 °C.

On to `Nc1cccc([N+](=O)[O-])c1` [3-nitroaniline], for which the melting point was determined as 113 °C.

The molecule `CC(C)C1=C(O)C(=O)C2=C(C(=O)CC3C(C)(C)CCCC23C)C1=O` (stereo unspecified) [7-Oxoroyleanone] gave a melting point of 198 °C.

Consider `O=Cc1cc(Cl)cc(Cl)c1` [3,5-Dichlorobenzaldehyde], for which the melting point turned out to be 68 °C.

`Cn1cnc2c1c(=O)[nH]c(=O)n2C` [theobromine] returned a melting point of 348 °C.

For `Oc1ccccc1` [phenol], the melting point is 41 °C.

As for `N#CCOc1ccccc1Br` [2-bromophenoxyacetonitrile], the melting point turned out to be 49 °C.

For the molecule `COc1ccc2c(c1)CC2=O` [3-methoxybicyclo[4.2.0]octa-1,3,5-trien-7-one], the melting point was 52 °C.

The molecule `Cc1cc(C(F)(F)F)n2nc(N)c(/N=N/c3c(Br)cc(Br)cc3Br)c2n1` yielded a melting point of 99 °C.

Turning to `CC(Br)CCCBr` (stereo unspecified) [1,4-dibromopentane], the melting point was -34 °C.

In turn, `CC(=O)c1ccc(Oc2ccccc2)cc1` [4'-phenoxyacetophenone] came in with a melting point of 50 °C.

`c1ccc2c(c1)ccc1cc3c(ccc4ccccc43)cc12` [dibenzo[a,h]anthracene] came in with a melting point of 266 °C.

Take `c1cc(OCC2CO2)cc(OCC2CO2)c1` (stereo unspecified) [resorcinol diglycidyl ether]: the melting point is 34 °C.

In turn, `CCCCCCCCP(=O)(CCCCCCCC)CCCCCCCC` [tri-n-octylphosphine oxide] gave a melting point of 55 °C.

With `CCCCN` [1-aminobutane], the melting point is -49 °C.

As to `O=C(O)C(F)(F)C(F)(F)C(F)(F)C(F)(F)C(F)(F)C(F)(F)C(F)(F)C(F)(F)C(F)(F)F` [Nonadecafluorodecanoic acid], the melting point was determined as 78 °C.

Regarding `Cc1ccc(O)c(-c2ccno2)c1` [2-(5-isoxazolyl)-4-methylphenol], the melting point was found to be 176 °C.

The molecule `O=C(O)C1=Cc2cc(Cl)ccc2OC1` [6-chloro-2h-chromene-3-carboxylic acid] returned a melting point of 243 °C.

In the case of `O=C(O)Cc1ccc(Br)cc1` [4-bromophenylacetic acid], the melting point is 117 °C.

The molecule `CCCCCCI` [1-iodohexane] gave a melting point of -75 °C.

Take `CCN(CC)CC` [N,N-Diethylethanamine]: the melting point was -115 °C.

In the case of `CC(C)(Oc1ccc(CCNC(=O)c2ccc(Cl)cc2)cc1)C(=O)O` [Bezafibrate], the melting point is 186 °C.

Molecule `CCCC(=O)CC` [3-hexanone] displayed a melting point of -55 °C.

The molecule `COc1c(N2C[C@@H]3CCCN[C@@H]3C2)c(F)cc2c(=O)c(C(=O)O)cn(C3CC3)c12` [Moxifloxacin] returned a melting point of 240 °C.

The molecule `CCc1ccc(NC(=S)NN)cc1` [4-(4-ethylphenyl)-3-thiosemicarbazide] yielded a melting point of 130 °C.

`Nc1ccc2c(c1)OCCCO2` [3,4-dihydro-2h-1,5-benzodioxepin-7-amine] yielded a melting point of 79 °C.

Regarding `CC12CCC3C(C(=O)CC4CC(=O)CCC43C)C1CCC2=O` (stereo unspecified) [androstane-3,7,17-trione], the melting point came to 232 °C.

`CCCCCCCCCCCC` [Dodecane] registered a melting point of -9.6 °C.
